The results in this text go back to US20050038113A1, “Valproic acid and derivatives for the combinatorial therapeutic treatment of human cancers and for the treatment of tumor metastasis and minimal residual disease” (G2M Cancer Drugs AG, priority 2001, published 2005).

For this experiment, the system named is primary AML blasts from AML patients. The experiment in a line: ex vivo differentiation, viability and apoptosis of leukemic blasts. It counts as cell-based, human. The conditions noted are these: for myeloid differentiation: M0, M2 and M4 FAB subtypes. On the procedure: Each point represents the mean of a set of data determined in triplicate (Example 15). VPA may cause synergistic therapeutic responses.
Cases were classified according to the French-American-British (FAB) classification (Bennett et al., Ann Intern Med 103, 1985). Cytogenetic analysis and RT-PCR tests were performed to rule out the presence of the APL associated fusion genes according to standard methods as described (Mandelli et al., Blood 90, 1997; Mancini et al., Br J Haematol. 91, 1995; Grimwade et al., Blood 90, 1999).

On to `CCCC(CCC)C(=O)O` [VPA, 2-propylpentanoic acid], for which the myeloid differentiation entry (VPA as a single agent) was “partial myeloid differentiation”; the myeloid differentiation result (VPA in combination with RA) was “complete and thus synergistic myeloid differentiation”. Besides, the “positive cells in the NBT dye reduction assay” value (VPA in combination with RA) was “up to 65%”. For the same compound, the “myeloid differentiation of blasts from primary or relapsed AMLs” value (VPA in combination with RA, 3 and 2 cases studied) is listed as “induced myeloid differentiation”. Moreover, where the note is “combination of VPA plus RA compared to VPA or RA alone”, the induction of apoptosis entry is “strongly enhanced, often in a synergistic fashion”. Also, the “apoptosis of AML blasts (FACS, propidium-iodide)” value (single agent, 4 cases tested) is “effective in inducing apoptosis”.
